Molecular target: PHF (paired helical filaments) isolated from the brain of an Alzheimer's disease patient (Homo sapiens, UniProt P10636)
Test: Competitive binding assay: displacement of primulin fluorescence from PHFs
Settings: concentration that reduces the signal of 1 μM primulin to 50% of control, relative affinity; for IC50: read-out: P50
Experimental: The DSB compounds were tested for their ability to bind to PHF in a competition-style assay.
If a test compound that also binds to PHFs with the same or greater affinity is added, it will displace the reference ligand and reduce the fluorescence signal. In the present assay, the reference compound is primulin, which was added at 1 μM. Test compounds were added at concentrations from 0.05 to 1 μM. The P50 for a test compound is defined as the concentration of compound that reduces the primulin signal to 50% of the control value. This value is, therefore, not an absolute affinity, but a relative affinity compared to the affinity of primulin.
PHFs were isolated from the brain of an Alzheimer's disease patient essentially as described by Wischik et al. (Neurobiology of Aging, Vol. 16, pp. 409-431, 1995). The IFII fraction was isolated by centrifugation on a sucrose gradient as described in the PhD thesis of C. M. Wischik, and was further extracted into an ‘abc sup’ as described by C. M. Wischik (Thesis “The structure and biochemistry of paired helical filaments in Alzheimer's disease” Part I and II; Cambridge University, 1989).
The assay for ligand activity was performed in 96 well plates (Nunc Cat. No. 236108). The test compound at the required concentration was mixed with PHFs, then primulin was added to give a final concentration of 1 μM and a total volume of 100 μl. The concentration of PHFs added was determined for each preparation to give an adequate fluorescence signal, and was typically in the range 1-2 μl/100 μl. The test compounds were typically dissolved in DMSO to give a final concentration of 10% DMSO in the assay. The control fluorescence, in the absence of PHFs, was also measured in the presence of 10% DMSO.
The fluorescence was measured in a Varian Carey Eclipse Fluorescence Spectrophotometer, with the […] wavelength at 480 nm. Excitation spectra were recorded and corrected by subtraction of the signal measured in the absence of PHFs, using the Varian software. The fluorescence signal at the peak […] wavelength of 420 nm was measured from the corrected spectra. The fluorescence values were plotted as a function of concentration of test compound, and the value for P50 measured from the graph.

Chain of PHF (paired helical filaments) isolated from the brain of an Alzheimer's disease patient (P10636 623-708 limits assumed): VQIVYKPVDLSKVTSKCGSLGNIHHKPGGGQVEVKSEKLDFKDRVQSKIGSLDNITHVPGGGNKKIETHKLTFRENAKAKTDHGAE

Structure (SMILES) | P50 | IC50 [nM]
Cc1ccc2nc(-c3ccc(NC(=O)c4ccccc4N)cc3)sc2c1 [ABAA-04] | no effect | –
Cc1ccc2nc(-c3ccc(NC(=O)c4cccc(N)c4)cc3)sc2c1 [ABAA-05] | no effect | –
Cc1ccc2nc(-c3ccc(NC(=O)c4ccc(N)cc4)cc3)sc2c1 [ABAA-06] | – | 520
Cc1ccc2nc(-c3ccc(NC(=O)c4ccccc4N(C)C)cc3)sc2c1 [ABAA-07] | no effect | –
Cc1ccc2nc(-c3ccc(NC(=O)c4cccc(N(C)C)c4)cc3)sc2c1 [ABAA-08] | no effect | –
Cc1ccc2nc(-c3ccc(NC(=O)c4ccccc4)cc3)sc2c1 [ABAA-10] | – | ~1200
Cc1ccc2nc(-c3ccc(NC(=O)c4cccc(O)c4)cc3)sc2c1 [ABAA-11] | – | ~1200
CNc1cccc(C(=O)Nc2ccc(-c3nc4ccc(C)cc4s3)cc2)c1 [ABAA-12] | no effect | –
CN(C)CCOc1ccc2nc(-c3ccc(NC(=O)c4ccc([N+](=O)[O-])c(C(F)(F)F)c4)cc3)sc2c1 [ABDMAA-01] | – | 980
CN(C)CCOc1ccc2nc(-c3ccc(NC(=O)c4ccc([N+](=O)[O-])c(C(F)(F)F)c4)cc3)sc2c1 [ABDMAA-02] | – | > 1000
O=C(Nc1ccc(-c2nc3ccc(O)cc3s2)cc1)c1ccc([N+](=O)[O-])c(C(F)(F)F)c1 [ABFHA-01] | – | 190
Nc1ccc(C(=O)Nc2ccc(-c3nc4ccc(O)cc4s3)cc2)cc1C(F)(F)F [ABFHA-02] | – | 340
O=C(Nc1ccc(-c2nc3ccc(O)cc3s2)cc1)c1ccc(OCC(F)(F)F)cc1 [ABFHA-03] | – | 100
O=C(Nc1ccc(-c2nc3ccc(O)cc3s2)cc1)c1ccc(OCCC(F)(F)F)cc1 [ABFHA-04] | no effect | –
O=C(Nc1ccc(-c2nc3ccc(O)cc3s2)cc1)c1ccc(OCCCC(F)(F)F)cc1 [ABFHA-05] | – | 400
O=C(Nc1ccc(-c2nc3ccc(O)cc3s2)c(O)c1)c1cc(OC(F)(F)F)ccc1O [ABFHA-06] | – | 390
O=C(Nc1ccc(-c2nc3ccc(O)cc3s2)c(O)c1)c1ccc(F)cc1 [ABFHA-07] | – | 100
O=C(Nc1ccc(-c2nc3ccc(O)cc3s2)cc1)c1ccc(O)cc1C(F)(F)F [ABFHA-08] | – | > 1000
O=C(Nc1ccc(-c2nc3ccc(O)cc3s2)cc1)c1cc(OC(F)(F)F)ccc1O [ABFHA-09] | – | > 1000
O=C(Nc1ccc(-c2nc3ccc(O)cc3s2)c(C(F)(F)F)c1)c1ccc(O)cc1 [ABFHA-10] | – | > 1000
O=C(Nc1ccc(-c2nc3ccc(O)cc3s2)cc1)c1ccc(F)c([N+](=O)[O-])c1 [ABFHA-11] | – | 310

Structure (SMILES) | P50 | IC50 [nM]
COc1ccc2nc(-c3ccc(NC(=O)c4ccccc4C(F)(F)F)cc3)sc2c1 [ABFMA-01] | no effect | –
COc1ccc2nc(-c3ccc(NC(=O)c4cccc(C(F)(F)F)c4)cc3)sc2c1 [ABFMA-02] | no effect | –
COc1ccc2nc(-c3ccc(NC(=O)c4ccc(C(F)(F)F)cc4)cc3)sc2c1 [ABFMA-03] | no effect | –
COc1ccc(C(=O)Nc2ccc(-c3nc4ccc(OC)cc4s3)cc2OC)c(C(F)(F)F)c1 [ABFMA-10] | no effect | –
COc1ccc2nc(-c3ccc(NC(=O)c4ccc([N+](=O)[O-])c(C(F)(F)F)c4)cc3)sc2c1 [ABFMA-12] | – | 170
COc1ccc2nc(-c3ccc(NC(=O)c4ccc(OCCCC(F)(F)F)cc4)cc3)sc2c1 [ABFMA-13] | no effect | –
COc1ccc2nc(-c3ccc(NC(=O)c4ccc(N)c(C(F)(F)F)c4)cc3)sc2c1 [ABFMA-15] | – | 430
COc1ccc2nc(-c3ccc(NC(=O)c4ccc(N)cc4C(F)(F)F)cc3)sc2c1 [ABFMA-16] | no effect | –
COc1ccc2nc(-c3ccc(NC(=O)c4ccc(N(C)C)cc4C(F)(F)F)cc3)sc2c1 [ABFMA-18] | no effect | –
COc1ccc2nc(-c3ccc(NC(=O)c4ccc(OCC(F)(F)F)cc4)cc3)sc2c1 [ABFMA-19] | no effect | –
Nc1ccccc1C(=O)Nc1ccc(-c2nc3ccc(O)cc3s2)cc1 [ABHA-01] | – | 900
Nc1cccc(C(=O)Nc2ccc(-c3nc4ccc(O)cc4s3)cc2)c1 [ABHA-02] | – | 560
Nc1ccc(C(=O)Nc2ccc(-c3nc4ccc(O)cc4s3)cc2)cc1 [ABHA-03] | – | 450
COc1cc(NC(=O)c2ccccc2N(C)C)ccc1-c1nc2ccc(O)cc2s1 [ABHA-04] | no effect | –
COc1ccc2nc(-c3ccc(NC(=O)c4ccccc4N)cc3)sc2c1 [ABMA-04] | – | 870
COc1ccc2nc(-c3ccc(NC(=O)c4cccc(N)c4)cc3)sc2c1 [ABMA-05] | – | 850
COc1ccc2nc(-c3ccc(NC(=O)c4ccc(N)cc4)cc3)sc2c1 [ABMA-06] | – | 370
COc1ccc2nc(-c3ccc(NC(=O)c4ccccc4N(C)C)cc3)sc2c1 [ABMA-07] | – | 1350
COc1ccc2nc(-c3ccc(NC(=O)c4cccc(N(C)C)c4)cc3)sc2c1 [ABMA-08] | – | ~1200
COc1ccc2nc(-c3ccc(NC(=O)c4ccc(N(C)C)cc4)cc3)sc2c1 [ABMA-09] | – | 170
COc1ccc2nc(-c3ccc(NC(=O)c4ccc(OC(C)=O)cc4)cc3)sc2c1 [ABMA-10] | – | 310

Structure (SMILES) | P50 | IC50 [nM]
COc1ccc2nc(-c3ccc(NC(=O)c4ccc(O)cc4)cc3)sc2c1 [ABMA-11] | – | 430
COc1ccc2nc(-c3ccc(NC(=O)c4ccc(O)c([N+](=O)[O-])c4)cc3)sc2c1 [ABMA-13] | – | 310
COc1ccc2nc(-c3ccc(NC(=O)c4ccc(F)cc4)cc3)sc2c1 [ABMFMA-01] | no effect | –
COc1ccc2nc(-c3ccc(NC(=O)c4ccc(F)nc4)cc3)sc2c1 [ABMFMA-02] | – | 890
COc1ccc2nc(-c3ccc(NC(=O)c4ccc(Cl)nc4)cc3)sc2c1 [ABMFMA-03] | – | 340
COc1ccc2nc(-c3ccc(NC(=O)c4ccc(F)c([N+](=O)[O-])c4)cc3)sc2c1 [ABMFMA-05] | – | 200
COc1ccc2nc(-c3ccc(NC(=O)c4ccc(OCCF)cc4)cc3)sc2c1 [ABMFMA-06] | no effect | –
COc1ccc2nc(-c3ccc(NC(=O)c4ccc(Br)c([N+](=O)[O-])c4)cc3)sc2c1 [ABMFMA-08] | – | > 1000
COc1ccc2nc(-c3ccc(NC(=O)c4ccc(I)c([N+](=O)[O-])c4)cc3)sc2c1 [ABMFMA-09] | – | 210
CN(C)c1ccc(C(=O)Nc2ccc(-c3cn4cccnc4n3)cc2)cc1 [AIPM-01] | no effect | –
CN(C)c1ccc(C(=O)Nc2ccc(-c3cn4ccccc4n3)cc2)cc1 [AIPN-01] | – | > 1000
Cc1ccc2nc(-c3ccc(NC(=O)c4ccc(N(C)C)cc4)cc3)cn2c1 [AIPN-02] | – | 310
Cc1ccc2nc(-c3ccc(NC(=O)c4ccncc4)cc3)cn2c1 [AIPN-03] | no effect | –
Cc1ccc2nc(-c3ccc(NC(=O)c4cccnc4)cc3)cn2c1 [AIPN-04] | no effect | –
Cc1ccc2nc(-c3ccc(NC(=O)c4ccccn4)cc3)cn2c1 [AIPN-05] | – | 510
Cc1ccc2nc(-c3ccc(NC(=O)c4ccc(F)nc4)cc3)cn2c1 [AIPN-06] | no effect | –
Cc1ccc2nc(-c3ccc(NC(=O)c4cccc(F)n4)cc3)cn2c1 [AIPN-07] | – | > 1000
Cc1ccc2nc(-c3ccc(NC(=O)c4ccc([N+](=O)[O-])cc4)cc3)cn2c1 [AIPN-08] | – | 100
Cc1ccc2nc(-c3ccc(NC(=O)c4ccc([N+](=O)[O-])c(C(F)(F)F)c4)cc3)cn2c1 [AIPN-09] | – | 340
Cc1ccc2nc(-c3ccc(NC(=O)c4ccc(NO)c(C(F)(F)F)c4)cc3)cn2c1 [AIPN-10] | – | 180

— patent US8895313B2, “Ligands for aggregated tau molecules” (Wista Laboratories Ltd., priority 2008, dated 2014)
